System: MOLM-13 cells
Assay: MOLM-13 Cell Proliferation Assay (indicator of DHODH inhibition)
Assay type: cell-based
Details: Homo sapiens, 72 Hours of culture, CellTiter-Glo, no uridine
Procedure, shortened: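 Proliferation readout via CellTiter-Glo luminescence after 72 h compound treatment (37 °C, 5% CO2, 0.5% DMSO) of MOLM-13 cells seeded at 10^4 per well in RPMI 1640/10% FBS, used as a DHODH-inhibition indicator since these cells rely on de novo pyrimidine synthesis.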

Point of comparison: Cc1ccnc(N2CCc3c([nH]c4cc(F)c(Cl)cc34)C2c2ccc(C#N)cc2)n1 (stereo not drawn) [Compound 61, 4-[6-chloro-7-fluoro-2-(4-methylpyrimidin-2-yl)-2,3,4,9-tetrahydro-1H-pyrido[3,4-b]indol-1-yl]benzonitrile], IC50 35.2 nM. Against it:
- Clc1ccc2[nH]c3c(c2c1)CCN(c1ncc(Br)cn1)[C@H]3c1cnc(N2CCOCC2)nc1 [Compound 470, (1S)-2-(5-bromopyrimidin-2-yl)-6-chloro-1-[2-(morpholin-4-yl)pyrimidin-5-yl]-2,3,4,9-tetrahydro-1H-pyrido[3,4-b]indole] — 11-fold lower, 3.1 nM
- CN1CCN(c2ncc([C@H]3c4[nH]c5ccc(-n6nccn6)cc5c4CCN3c3ncnc(C(F)(F)F)n3)cn2)CC1 [Compound 506, (1S)-1-[2-(4-methylpiperazin-1-yl)pyrimidin-5-yl]-6-(2H-1,2,3-triazol-2-yl)-2-[4-(trifluoromethyl)-1,3,5-triazin-2-yl]-2,3,4,9-tetrahydro-1H-pyrido[3,4-b]indole] — 6.2-fold lower, 5.7 nM
- CCCCOc1nc(C)nc(N2CCc3c([nH]c4ccc(Cl)cc34)C2c2cnc(N3CCOCC3)nc2)n1 (stereo not drawn) [Compound 318, 2-(4-butoxy-6-methyl-1,3,5-triazin-2-yl)-6-chloro-1-[2-(morpholin-4-yl)pyrimidin-5-yl]-2,3,4,9-tetrahydro-1H-pyrido[3,4-b]indole] — 8.2-fold lower, 4.3 nM
- CN(C)c1ncc(C2c3[nH]c4cc(F)c(Cl)cc4c3CCN2c2nccc(C(F)(F)F)n2)cn1 (stereo not drawn) [Compound 95, 5-{6-chloro-7-fluoro-2-[4-(trifluoromethyl)pyrimidin-2-yl]-2,3,4,9-tetrahydro-1H-pyrido[3,4-b]indol-1-yl}-N,N-dimethylpyrimidin-2-amine] — 7.7-fold lower, 4.6 nM
- Fc1ccc(C2c3[nH]c4ccc(F)c(F)c4c3CCN2c2ncc(F)cn2)cc1 (stereo not drawn) [Compound 83, 5,6-difluoro-1-(4-fluorophenyl)-2-(5-fluoropyrimidin-2-yl)-2,3,4,9-tetrahydro-1H-pyrido[3,4-b]indole] — 7.4-fold higher, 259 nM
- Cc1nc(N2CCc3c([nH]c4ccc(Cl)cc34)C2c2cnc(N3CCOCC3)nc2)ncc1F (stereo not drawn) [Compound 366, 6-chloro-2-(5-fluoro-4-methylpyrimidin-2-yl)-1-[2-(morpholin-4-yl)pyrimidin-5-yl]-2,3,4,9-tetrahydro-1H-pyrido[3,4-b]indole] — 3.5-fold lower, 10 nM
- COC(=O)c1ccnc(N2CCc3c([nH]c4ccc(Cl)c(F)c34)C2c2ccc(C#N)cc2)n1 (stereo not drawn) [Compound 104, methyl 2-[6-chloro-1-(4-cyanophenyl)-5-fluoro-1,3,4,9-tetrahydro-2H-pyrido[3,4-b]indol-2-yl]pyrimidine-4-carboxylate] — within 1.5-fold, 30.4 nM
- FC(F)(F)c1ccnc(N2CCc3c([nH]c4ccc(Cl)cc34)C2c2ccc(-n3cccn3)cc2)n1 (stereo not drawn) [Compound 261, 6-chloro-1-[4-(1H-pyrazol-1-yl)phenyl]-2-[4-(trifluoromethyl)pyrimidin-2-yl]-2,3,4,9-tetrahydro-1H-pyrido[3,4-b]indole] — 29-fold lower, 1.2 nM
- N#Cc1cc(C#N)nc(N2CCc3c([nH]c4cc(F)c(Cl)cc34)C2c2cccc(F)c2F)n1 (stereo not drawn) [Compound 227, 2-[6-chloro-1-(2,3-difluorophenyl)-7-fluoro-1,3,4,9-tetrahydro-2H-pyrido[3,4-b]indol-2-yl]pyrimidine-4,6-dicarbonitrile] — 2.1-fold lower, 16.4 nM
- Cc1ccn(-c2ccc3[nH]c4c(c3c2)CCN(c2nc(C(F)(F)F)nc(C(F)(F)F)n2)[C@H]4c2ccc(C)c(F)c2F)n1 [Compound 530, (1S)-2-[4,6-bis(trifluoromethyl)-1,3,5-triazin-2-yl]-1-(2,3-difluoro-4-methylphenyl)-6-(3-methyl-1H-pyrazol-1-yl)-2,3,4,9-tetrahydro-1H-pyrido[3,4-b]indole] — 3.2-fold lower, 10.9 nM
- Fc1c(C2c3[nH]c4ccc(Cl)cc4c3CCN2c2nccc(C(F)(F)F)n2)ccc(N2CCOCC2)c1F (stereo not drawn) [Compound 279, 6-chloro-1-[2,3-difluoro-4-(morpholin-4-yl)phenyl]-2-[4-(trifluoromethyl)pyrimidin-2-yl]-2,3,4,9-tetrahydro-1H-pyrido[3,4-b]indole] — 6.9-fold lower, 5.1 nM
- Cc1ccc(C2c3[nH]c4cc(F)c(Cl)cc4c3CCN2c2nc(C)cc(C#N)n2)cc1 (stereo not drawn) [Compound 151, 2-[6-chloro-7-fluoro-1-(4-methylphenyl)-1,3,4,9-tetrahydro-2H-pyrido[3,4-b]indol-2-yl]-6-methylpyrimidine-4-carbonitrile] — 7.8-fold lower, 4.5 nM
- FC(F)(F)c1cnc(N2CCc3c([nH]c4ccc(Cl)cc34)C2c2cnc(N3CCOCC3)nc2)nn1 (stereo not drawn) [Compound 458, 6-chloro-1-[2-(morpholin-4-yl)pyrimidin-5-yl]-2-[6-(trifluoromethyl)-1,2,4-triazin-3-yl]-2,3,4,9-tetrahydro-1H-pyrido[3,4-b]indole] — 7.7-fold lower, 4.6 nM
- CN(C)c1ncc(C2c3[nH]c4cc(F)c(Cl)cc4c3CCN2c2ncc(Cl)cn2)cn1 (stereo not drawn) [Compound 102, 5-[6-chloro-2-(5-chloropyrimidin-2-yl)-7-fluoro-2,3,4,9-tetrahydro-1H-pyrido[3,4-b]indol-1-yl]-N,N-dimethylpyrimidin-2-amine] — 1.8-fold lower, 19.6 nM
- Cc1ccc([C@H]2c3[nH]c4ccc(Cl)cc4c3CCN2c2ncnc(C#N)n2)cc1 [Compound 399, 4-[(1S)-6-chloro-1-(4-methylphenyl)-1,3,4,9-tetrahydro-2H-pyrido[3,4-b]indol-2-yl]-1,3,5-triazine-2-carbonitrile] — 3.1-fold lower, 11.2 nM
- Fc1ccc(C2c3[nH]c4cc(F)c(Cl)cc4c3CCN2c2ncc(F)cn2)cc1 (stereo not drawn) [Compound 5, 6-chloro-7-fluoro-1-(4-fluorophenyl)-2-(5-fluoropyrimidin-2-yl)-2,3,4,9-tetrahydro-1H-pyrido[3,4-b]indole] — 1.9-fold higher, 67.9 nM
- Cc1cc(C#N)nc(N2CCc3c([nH]c4cc(F)c(Cl)cc34)C2c2cccc(F)c2F)n1 (stereo not drawn) [Compound 152, 2-[6-chloro-1-(2,3-difluorophenyl)-7-fluoro-1,3,4,9-tetrahydro-2H-pyrido[3,4-b]indol-2-yl]-6-methylpyrimidine-4-carbonitrile] — 9.5-fold lower, 3.7 nM
- Fc1cc2[nH]c3c(c2cc1Cl)CCN(c1nccc(Cl)n1)C3c1cccc(F)c1F (stereo not drawn) [Compound 77, 6-chloro-2-(4-chloropyrimidin-2-yl)-1-(2,3-difluorophenyl)-7-fluoro-2,3,4,9-tetrahydro-1H-pyrido[3,4-b]indole] — 4.8-fold lower, 7.4 nM
- FC(F)(F)c1ccnc(N2CCc3c([nH]c4ccc(Cl)cc34)C2c2ccc(-n3ccnc3)cc2)n1 (stereo not drawn) [Compound 260, 6-chloro-1-[4-(1H-imidazol-1-yl)phenyl]-2-[4-(trifluoromethyl)pyrimidin-2-yl]-2,3,4,9-tetrahydro-1H-pyrido[3,4-b]indole] — 5.6-fold lower, 6.3 nM
- Fc1ccc(C2c3[nH]c4ccc(Cl)c(F)c4c3CCN2c2ncc(Cl)cn2)cc1 (stereo not drawn) [Compound 49, 6-chloro-2-(5-chloropyrimidin-2-yl)-5-fluoro-1-(4-fluorophenyl)-2,3,4,9-tetrahydro-1H-pyrido[3,4-b]indole] — 1.7-fold lower, 21.2 nM
- Cc1nc(C)nc(N2CCc3c([nH]c4ccc(Br)cc34)C2c2cnc(N3CCOCC3)nc2)n1 (stereo not drawn) [Compound 299, 6-bromo-2-(4,6-dimethyl-1,3,5-triazin-2-yl)-1-[2-(morpholin-4-yl)pyrimidin-5-yl]-2,3,4,9-tetrahydro-1H-pyrido[3,4-b]indole] — 5.2-fold lower, 6.8 nM
- Fc1c(Cl)ccc2[nH]c3c(c12)CCN(c1nccc(C(F)(F)F)n1)C3c1cnc(-n2ccnc2)nc1 (stereo not drawn) [Compound 193, 6-chloro-5-fluoro-1-[2-(1H-imidazol-1-yl)pyrimidin-5-yl]-2-[4-(trifluoromethyl)pyrimidin-2-yl]-2,3,4,9-tetrahydro-1H-pyrido[3,4-b]indole] — 9.3-fold lower, 3.8 nM
- Fc1cnc(N2CCc3c([nH]c4cc(F)c(Cl)cc34)C2c2cccc(F)c2F)nc1 (stereo not drawn) [Compound 36, 6-chloro-1-(2,3-difluorophenyl)-7-fluoro-2-(5-fluoropyrimidin-2-yl)-2,3,4,9-tetrahydro-1H-pyrido[3,4-b]indole] — 1.5-fold lower, 23.4 nM
- Fc1c(C2c3[nH]c4ccc(Cl)cc4c3CCN2c2nccc(C(F)(F)F)n2)ccc(-n2ccnc2)c1F (stereo not drawn) [Compound 285, 6-chloro-1-[2,3-difluoro-4-(1H-imidazol-1-yl)phenyl]-2-[4-(trifluoromethyl)pyrimidin-2-yl]-2,3,4,9-tetrahydro-1H-pyrido[3,4-b]indole] — 13-fold lower, 2.8 nM
- Cc1nc(C)nc(N2CCc3c([nH]c4c(N)cc(Cl)cc34)C2c2cnc(N3CCOCC3)nc2)n1 (stereo not drawn) [Compound 309, 6-chloro-2-(4,6-dimethyl-1,3,5-triazin-2-yl)-1-[2-(morpholin-4-yl)pyrimidin-5-yl]-2,3,4,9-tetrahydro-1H-pyrido[3,4-b]indol-8-amine] — 6.3-fold lower, 5.6 nM
- Fc1cc(-n2ccnc2)ccc1C1c2[nH]c3ccc(Cl)cc3c2CCN1c1nccc(C(F)(F)F)n1 (stereo not drawn) [Compound 275, 6-chloro-1-[2-fluoro-4-(1H-imidazol-1-yl)phenyl]-2-[4-(trifluoromethyl)pyrimidin-2-yl]-2,3,4,9-tetrahydro-1H-pyrido[3,4-b]indole] — 4.8-fold lower, 7.3 nM
- Cc1ccc(C2c3[nH]c4ccc(Cl)c(F)c4c3CCN2c2ncc(F)c(C#N)n2)cc1 (stereo not drawn) [Compound 217, 2-[6-chloro-5-fluoro-1-(4-methylphenyl)-1,3,4,9-tetrahydro-2H-pyrido[3,4-b]indol-2-yl]-5-fluoropyrimidine-4-carbonitrile] — 16-fold lower, 2.2 nM
- OCCCc1ccc(C2c3[nH]c4cc(F)c(Cl)cc4c3CCN2c2ncc(F)cn2)cc1 (stereo not drawn) [Compound 159, 3-{4-[6-chloro-7-fluoro-2-(5-fluoropyrimidin-2-yl)-2,3,4,9-tetrahydro-1H-pyrido[3,4-b]indol-1-yl]phenyl}propan-1-ol] — within 1.5-fold, 27.1 nM
- Cc1ccc([C@H]2c3[nH]c4ccc(Cl)cc4c3CCN2c2nc(C(F)(F)F)nc(C(F)(F)F)n2)cc1 [Compound 386, (1S)-2-[4,6-bis(trifluoromethyl)-1,3,5-triazin-2-yl]-6-chloro-1-(4-methylphenyl)-2,3,4,9-tetrahydro-1H-pyrido[3,4-b]indole] — 120-fold lower, 0.3 nM
